Data as given in US20240158446A1, “CYCLIC COMPOUND HAVING SELECTIVE INHIBITORY ACTION ON KRAS OVER HRAS AND NRAS” (CHUGAI SEIYAKU KABUSHIKI KAISHA, priority 2021, published 2024).
Read-outs that look alike come from different tables or passages of the source. Where a SMILES comes first, the peptide text is derived from it. Bridges are numbered along the chain shown (N, C = ends). [ ]: non-standard residue; d: D form. The star is where a group is joined. hPhe(3,5-F2-4-CF3) = N[C@@H](CCc1cc(F)c(C(F)(F)F)c(F)c1)C(=O)O; hPhe(3-Cl-4-CF3) = N[C@@H](CCc1ccc(C(F)(F)F)c(Cl)c1)C(=O)O; NPrPhe(4-CF3) = CCCN[C@@H](Cc1ccc(C(F)(F)F)cc1)C(=O)O; NMeGly(cPent) = CN[C@H](C(=O)O)C1CCCC1; Ac4c(3,3-F2) = NC1(C(=O)O)CC(F)(F)C1; Hyp = O=C(O)[C@@H]1C[C@@H](O)CN1; NMeD = CN[C@@H](CC(=O)O)C(=O)O; NMeL = CN[C@@H](CC(C)C)C(=O)O; Morpholide = C1CN(*)CCO1; Ac5c = NC1(C(=O)O)CCCC1; Sar = CNCC(=O)O

Experiments:
[1] = molecular target: GDP-bound HRAS wild-type protein (Homo sapiens, UniProt P01112); test: Binding to HRAS by surface plasmon resonance (SPR), Single Cycle Kinetics; settings: SPR, GDP-bound HRAS wild-type protein vs GDP-bound KRAS wild-type protein
[2] = molecular target: GDP-bound KRAS wild-type protein (Homo sapiens, UniProt P01116); test: Binding to KRAS by surface plasmon resonance (SPR), Single Cycle Kinetics; settings: GDP-bound KRAS wild-type protein, read-out: KRAS KD
[3] = molecular target: GDP-bound NRAS wild-type protein (Homo sapiens, UniProt P01111); test: Binding to NRAS by surface plasmon resonance (SPR), Single Cycle Kinetics; settings: SPR, GDP-bound NRAS wild-type protein vs GDP-bound KRAS wild-type protein
[4] = SPR Single Cycle Kinetics, 1:1 binding model

Sequence of GDP-bound HRAS wild-type protein (P01112 whole entry): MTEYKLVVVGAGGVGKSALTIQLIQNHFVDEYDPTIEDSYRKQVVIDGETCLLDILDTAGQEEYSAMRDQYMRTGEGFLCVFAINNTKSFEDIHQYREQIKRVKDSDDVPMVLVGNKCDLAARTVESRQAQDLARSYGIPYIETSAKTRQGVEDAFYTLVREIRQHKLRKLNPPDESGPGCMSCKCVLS
Sequence of GDP-bound NRAS wild-type protein (P01111 whole entry): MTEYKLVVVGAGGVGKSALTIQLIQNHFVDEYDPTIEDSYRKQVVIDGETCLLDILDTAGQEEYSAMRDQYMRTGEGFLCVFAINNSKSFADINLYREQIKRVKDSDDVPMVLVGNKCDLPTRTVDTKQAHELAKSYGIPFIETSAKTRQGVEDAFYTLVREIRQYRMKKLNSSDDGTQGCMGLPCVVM
Sequence of GDP-bound KRAS wild-type protein (P01116 whole entry): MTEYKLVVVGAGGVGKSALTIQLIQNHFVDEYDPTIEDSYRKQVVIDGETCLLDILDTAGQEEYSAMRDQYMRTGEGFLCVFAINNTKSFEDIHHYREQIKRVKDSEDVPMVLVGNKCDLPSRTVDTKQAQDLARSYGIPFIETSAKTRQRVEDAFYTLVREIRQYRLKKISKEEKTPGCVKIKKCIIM

Compound | Kd [2, 4] [nM] | HRAS/KRAS (ratio of KD value for HRAS to KD value for KRAS) [1] | Kd ([2]; SPR, Single Cycle Kinetics) [nM] | NRAS/KRAS (ratio of KD value for NRAS to KD value for KRAS) [3] | further results
CCO[C@@H]1C[C@H]2C(=O)NC3(CCC3)C(=O)N(C)[C@@H](C(CC)CC)C(=O)N(C)[C@H](C(=O)N(C)C)CC(=O)N(C)[C@@H](CC3CCCC3)C(=O)N[C@@H]([C@@H](C)CC)C(=O)N(C)CC(=O)N(C)[C@H]3C/C=C\CCN(C3=O)[C@@H](Cc3ccc(F)cc3)C(=O)N(C)CC(=O)N[C@@H](CCc3cc(F)c(C(F)(F)F)c(F)c3)C(=O)N2C1 [PP1517] |  |  |  |  | HRAS/KRAS (ratio of KD value for HRAS to KD value for KRAS) ([1]; KD ratio class): A (a compound having 10 or more and less than 20 is denoted as A); Kd ([2]; SPR, Single Cycle Kinetics, 1:1 binding model): 0.43 nM; NRAS/KRAS (ratio of KD value for NRAS to KD value for KRAS) ([3]; KD ratio class): A (a compound having 10 or more and less than 20 is denoted as A)
CCCN1C(=O)CN(C)C(=O)CN(C)C(=O)[C@H]([C@@H](C)CC)NC(=O)[C@H](CC(C)C)N(C)C(=O)C[C@@H](C(=O)N(C)C)N(C)C(=O)[C@H](C2CCCC2)N(C)C(=O)C2(CC(F)(F)C2)NC(=O)[C@@H]2CCCN2C(=O)[C@H](CCc2cc(F)c(C(F)(F)F)c(F)c2)NC(=O)CN(C)C(=O)[C@@H]1Cc1ccc(C(F)(F)F)cc1 [PP0745] ([NMeL]I[Sar][Sar][NPrPhe(4-CF3)][Sar][hPhe(3,5-F2-4-CF3)]P[Ac4c(3,3-F2)][NMeGly(cPent)][NMeD]-NMe2; lactam N-11) | 0.029 |  |  |  | HRAS/KRAS (ratio of KD value with respect to HRAS to KD value with respect to KRAS) [1]: C (A compound having a KD ratio of 0.1 or more and less than 3 is denoted as C); NRAS/KRAS (ratio of KD value with respect to NRAS to KD value with respect to KRAS) [3]: B (a compound having 3 or more and less than 10 is denoted as B)
CCC[C@H]1C(=O)N[C@@H]([C@@H](C)CC)C(=O)N(C)CC(=O)N(C)[C@H]2C/C=C\CCN(C2=O)[C@@H](CC2CCC(F)(F)CC2)C(=O)N(C)CC(=O)N[C@@H](CCc2ccc(C(F)(F)F)c(OC)c2)C(=O)N2C[C@H](OCC)C[C@H]2C(=O)N(C)C2(CCC2)C(=O)N(C)[C@@H](C2CCCC2)C(=O)N(C)[C@H](C(=O)N(C)C)CC(=O)N1C [PP2348] |  | A (a compound having 10 or more and less than 20 is denoted as A) | 0.34 | A (a compound having 10 or more and less than 20 is denoted as A) | 
CCCN1C(=O)CN(C)C(=O)CN(C)C(=O)[C@H]([C@@H](C)CC)NC(=O)[C@H](CC(C)C)N(C)C(=O)C[C@@H](C(=O)N2CCOCC2)N(C)C(=O)[C@H](C2CCCC2)N(C)C(=O)C2(CCCC2)NC(=O)[C@@H]2C[C@@H](OCC)CN2C(=O)[C@H](CCc2ccc(C(F)(F)F)c(Cl)c2)NC(=O)CN(C)C(=O)[C@@H]1Cc1ccc(C(F)(F)F)cc1 [PP0233] ([NMeL]I[Sar][Sar][NPrPhe(4-CF3)][Sar][hPhe(3-Cl-4-CF3)][Hyp](Et)[Ac5c][NMeGly(cPent)][NMeD]-Morpholide; lactam N-11) | 0.052 | C (A compound having a KD ratio of 0.1 or more and less than 3 is denoted as C) |  | B (a compound having 3 or more and less than 10 is denoted as B) | 
CC(C)C[C@H]1C(=O)N[C@@H](C2CCC2)C(=O)N(C)CC(=O)N(C)[C@H]2CCCCN(C2=O)[C@@H](Cc2ccc(C(F)(F)F)cc2)C(=O)N(C)CC(=O)N[C@@H](CCc2cc(F)c(C(F)(F)F)c(F)c2)C(=O)N2CCC[C@H]2C(=O)NC2(CCCC2)C(=O)N(C)[C@@H](C2CCCC2)C(=O)N(C)[C@H](C(=O)N2CCOCC2)CC(=O)N1C [PP0596] | 0.1 |  |  |  | HRAS/KRAS (ratio of KD value with respect to HRAS to KD value with respect to KRAS) [1]: B (a compound having 3 or more and less than 10 is denoted as B); NRAS/KRAS (ratio of KD value with respect to NRAS to KD value with respect to KRAS) [3]: B (a compound having 3 or more and less than 10 is denoted as B)
CCO[C@@H]1C[C@H]2C(=O)NC3(CCC3)C(=O)N(C)[C@@H](C3CCCC3)C(=O)N(C)[C@H](C(=O)N3CCOCC3)CC(=O)N(C)[C@@H](CC)C(=O)N[C@@H]([C@@H](C)CC)C(=O)N3CC[C@H]3C(=O)N(C)[C@H]3C[C@@H](C)CCN(C3=O)[C@@H](Cc3ccc(C(F)(F)F)cc3)C(=O)N(C)CC(=O)N[C@@H](CCc3cc(F)c(C(F)(F)F)c(F)c3)C(=O)N2C1 [PP1028] |  | B (a compound having 3 or more and less than 10 is denoted as B) | 0.099 | B (a compound having 3 or more and less than 10 is denoted as B) | 
CCO[C@@H]1C[C@H]2C(=O)NC3(CCC3)C(=O)N(C)[C@@H](C3CCCC3)C(=O)N(CC)[C@H](C(=O)N3CCOCC3)CC(=O)N(C)[C@@H](CCOC)C(=O)N[C@@H]([C@@H](C)CC)C(=O)N(C)CC(=O)N(C)[C@H]3CCCCCN(C3=O)[C@@H](Cc3ccc(C(F)(F)F)cc3)C(=O)N(C)CC(=O)N[C@@H](CCc3cc(F)c(C(F)(F)F)c(F)c3)C(=O)N2C1 [PP0947] |  | A (a compound having 10 or more and less than 20 is denoted as A) | 3.4 | A (a compound having 10 or more and less than 20 is denoted as A) | 
